These results are taken from patent publication US20260327217A1, “THIAZOLE DERIVATIVES AS TAU AGGREGATION INHIBITORS” (WisTa Laboratories Ltd., priority 2022, published 2026).

What is called IC50 is the concentration at which inhibition is half-maximal. Lower therefore signals greater potency in that assay. In general, EC50 refers to the concentration at which the effect is half-maximal.

In data set [1] the target is T1, truncated tau (residues 297-390; dGA) / dGAE (residues 297-391), tau-tau binding (Homo sapiens, UniProt P10636).
T1 construct: truncated tau (residues 297-390; dGA); another truncated tau species (residues 297-391; dGAE)
Description: in vitro cell-free tau-tau binding assay (B50). Particulars: concentration required to inhibit tau-tau binding by 50%. An excerpt:
This is described in detail in WO 96/30766 and in [25]. Briefly, a fragment of tau corresponding to the core repeat domain, which has been adsorbed to a solid-phase substrate, is able to capture soluble, full-length tau and bind tau with high affinity. This association confers stability against proteolytic digestion of the aggregated tau molecules. The process is self-propagating and can be blocked selectively by prototype pharmaceutical agents.
More specifically, truncated tau (residues 297-390; dGA) diluted in carbonate buffer (pH 9.6) was bound to the assay plate, and another truncated tau species (residues 297-391; dGAE) was added in the aqueous phase. The aqueous phase binding buffer contained 0.05% Tween-20 and 1% gelatine in phosphate-buffered saline (pH 7.4). Bound dGAE was detected using mAb 423 that recognises a Glu-391 dependent epitope that is absent from the solid-phase dGA.
The concentration of compound required to inhibit the tau-tau binding by 50% is referred to as the B50 value.

Data set [2] concerns the target T2, full-length tau (T40; htau40 isoform) / truncated tau (12-kDa fragment) in 3T6 fibroblast cells (Homo sapiens, UniProt P10636).
T2 construct: fibroblast cells (3T6) express full-length tau; PHF-core tau fragment (12-kDa fragment); expressed in transfected cells; host or cells: 3T6 fibroblast cells
Description: cellular tau aggregation inhibition assay (truncated 12-kDa tau / full-length T40 band ratio on immunoblots). Particulars: for activity at 20 µM: tested at 20 μM. It is filed as cell-based. The method, then:
A cell-based tau aggregation assay was performed as described previously. The process is described in more detail in WO 02/055720. In essence, fibroblast cells (3T6) express full-length tau (“T40”; the htau40 isoform) under control of an inducible promotor, and low constitutive levels of the PHF-core tau fragment (12-kDa fragment). When T40 expression is induced, it undergoes aggregation-dependent truncation within the cell, N-terminally at approximately amino acid residue 295 and C-terminally at approximately residue 390, thereby producing higher levels of the 12-kDa PHF-core domain fragment. Production of the 12-kDa fragment can be blocked in a dose-dependent manner by tau-aggregation inhibitors. Indeed, the quantitation of inhibitory activity of compounds with respect to proteolytic generation of the 12-kDa fragment within cells can be described entirely in terms of the same parameters which describe inhibition of tau-tau binding in vitro. That is, the extent of proteolytic generation of the 12-kDa fragment within cells is determined entirely by the extent to tau-tau binding through the repeat domain.
[…] MTC was included as a reference tau aggregation inhibitor. For single concentration tests. The ratio of the quantity of both of the protein bands at different concentrations of TAI is measured, to correct for the level of expression of full-length tau and for cell density, particularly at high concentration of TAIs.
The inhibitory ratio (IR) is calculated by the equation:
Where IR^x=inhibitory ratio for compound at x mM; S=signal on immunoblot (mean) for truncated tau (trunc. tau) or full-length tau (full tau) bands for compound at 0 or x mM. A ratio of 1.0 indicates no effect, whereas values decreasing from 1.0 indicate increasing inhibitory action. A curve is generated for different concentrations and the EC50 value for the TAI is defined as the concentration at which the ratio of truncated tau: full-length tau is 50% of that ratio measured in the absence of TAI; this is determined graphically.
The concentration at which there is 50% inhibition of the 12-kDa band relative to T40 (referred to as the EC50 value) was calculated from a graph of the protein band ratios relative to those observed in untreated cells.
A general note: In western blotting, separated proteins are transferred to a membrane and probed.

The next data set addresses T3, dGAE (Homo sapiens, UniProt P10636).
T3 construct: HMT or Compound 9 added
Description: solution-phase sandwich ELISA of dGAE assembly (scAb epitope occlusion). It is filed as biochemical. Particulars: 100 μM dGAE, 500 μM inhibitor, 24 h assembly; for assembly-dependent occlusion of epitopes: CA4, CE2, 1G2 and 1D12 epitopes; for 1G2 epitope availability / immunoreactivity: scAb 1G2. The procedure: Recombinant dGAE was produced in a bacterial expression system and assembled in the presence of 10 mM DTT by incubation at 37° C. with agitation for 24 h, as described previously. For testing the pharmacological activity, assembly reactions were performed with 100 μM dGAE and 500 μM tau aggregation inhibitor (Compound 9 or HMT) in Protein Lobind tubes (Eppendorf). Compound 9 was dissolved in DMSO (final 0.5%) and HMT in 10 mM phosphate buffer (PB) supplemented with 10 mM DTT. Control tubes with dGAE+DTT in PB and dGAE+DTT in 0.5% DMSO were also set up to allow for comparison of the extent of aggregation. Following a 24 h assembly reaction, the contents from each tube were mixed by pipetting and samples removed for the immunodetection of exposed epitopes using a solution-phase sandwich ELISA.
Ninety-six well Nunc Maxisorp plates were pre-coated with mAb 423 (10 μg/ml), which specifically recognises tau that is C-terminally truncated at Glu391 in the Pronase-resistant PHF core, washed three times with PBS containing 0.1% Tween 20 (PBST) and then blocked with 2% dried milk (Marvel) in PBS. Doubling dilutions of dGAE assembly samples were added from starting concentrations of 10 μg/ml in PBS and incubated for 1 h at 37° C. Bound tau was then detected using scAbs (10 μg/ml) and incubated for 1 h at 37° C. Anti-human C kappa HRP-conjugated secondary antibody was diluted 1:1,000 in 2% dried milk in PBS and incubated for 1 h at 37° C. Pierce 1-Step Ultra TMB-ELISA Substrate Solution was used to develop the reaction which was subsequently stopped with the addition of 1 M H2SO4. Absorbance was measured at 450 nm.
In general terms: In an ELISA, binding on a coated surface is turned into a signal by an enzyme label.

The nature of data set [3]: toxicity in cells (lactate dehydrogenase assay, 24 hrs). It is filed as cell-based. The note with it: mouse, 3t6 fibroblasts; concentration at which 50% of cells are killed; 24 hrs exposure; read-out: LD50. The method, then: Toxicity of the compounds described herein was assessed using the fibroblast cells used in the cell-based assay described above to assess EC50. Toxicity was measured by cell numbers after 24 hrs exposure to the compound using a lactate dehydrogenase assay kit TOX-7 (Sigma Biosciences) according to the manufacturer's instructions after lysis of remaining cells. Alternatively, a kit from Promega UK (CytoTox 96) was used, again according to the manufacturer's instructions. LD50 is determined as the concentration of compound at which 50% of cells are killed.

The conditions of data set [4]: both AD and frontotemporal dementia; cited from earlier work.
The target in data set [5] is T2, full-length tau (T40; htau40 isoform) / truncated tau (12-kDa fragment) in 3T6 fibroblast cells. Particulars: previously reported [4, 13]; read-out: EC50 in the cell assay; cited from earlier work.
[6] abbreviates: single concentration test, vs untreated cells, ~1.0 negative, <0.5 positive inhibitor, read-out: Truncated tau/T40 ratio (n = 3).

“Also recorded” adds a separate entry of the source. Where a name gives a salt, the structure may show the parent alone. Read-outs that look alike come from different tables or passages of the source. A value given as a limit tells only on which side of the number the result lay.

T1 sequence (P10636 614-708): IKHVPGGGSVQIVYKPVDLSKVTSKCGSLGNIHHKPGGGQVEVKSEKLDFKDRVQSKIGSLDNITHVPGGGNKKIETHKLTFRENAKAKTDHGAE
T3 sequence (P10636 614-708): as above
T2 sequence (P10636 1-441 isoform P10636-8): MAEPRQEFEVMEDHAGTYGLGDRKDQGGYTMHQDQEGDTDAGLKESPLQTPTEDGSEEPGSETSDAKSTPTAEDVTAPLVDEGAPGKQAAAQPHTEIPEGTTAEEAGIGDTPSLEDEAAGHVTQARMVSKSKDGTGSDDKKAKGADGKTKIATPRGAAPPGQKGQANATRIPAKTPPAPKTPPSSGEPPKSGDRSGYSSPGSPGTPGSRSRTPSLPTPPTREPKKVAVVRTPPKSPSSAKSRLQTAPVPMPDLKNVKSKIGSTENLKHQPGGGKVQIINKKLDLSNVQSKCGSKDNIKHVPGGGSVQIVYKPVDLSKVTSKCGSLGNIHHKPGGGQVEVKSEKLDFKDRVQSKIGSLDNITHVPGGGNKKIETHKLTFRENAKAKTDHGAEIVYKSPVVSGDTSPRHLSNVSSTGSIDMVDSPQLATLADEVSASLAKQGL

Regarding `CN(c1nc(C(=O)NCc2cc(-c3ccccc3)[nH]n2)cs1)S(C)(=O)=O` [Compound 9], the IC50 in data set [1] was > 500 µM. The EC50 turned out to be 4.82 µM in data set [2] (full assay, concentration at which truncated tau:full-length tau ratio is 50% of that without TAI, mean for replicates, NE = no effect, read-out: EC50) and 3.65 µM in data set [2] (single experiment, FIG. 2, read-out: EC50 (50% inhibition of the lower 12-kDa band)). Besides, the “activity in cell-based aggregation assay (in words)” value in data set [2] (qualitative statement) was “lower potency”. Besides, the activity at 2 µM in data set [2] (single concentration test, tested at 2 μM, vs untreated cells, ~1.0 negative, <0.5 positive inhibitor, read-out: Truncated tau/T40 ratio (n = 3)) worked out at 26.6 ± 6.1%. In addition, on dGAE, the “assembly-dependent occlusion of epitopes” value is recorded as “Epitope exposure was less complete”. Besides, the “1G2 epitope availability / immunoreactivity” value on dGAE is on record as “comparable to HMT”. Further, the “exposure of the CA4 and 1D12 epitopes” value on dGAE (scAbs CA4 and 1D12) is “only partial exposure”. Moreover, the CC50 at 24 h in data set [3] was found to be 80.1 ± 45 µM.
`O=C(NCc1nc2cc(Cl)ccc2[nH]1)c1csc(NS(=O)(=O)c2c[nH]c3ccccc23)n1` [Compound 25]: in data set [1], the half-inhibitory concentration (IC50) was 612 µM. Also, in data set [2] (setting [6]), the activity at 20 µM was 91.1 ± 10%. Also, the CC50 at 24 h in data set [3] is 202 ± 9.3 µM.
Regarding `CN(C)c1ccc2c(c1)Sc1cc(N(C)C)ccc1N2` [HMTM, Hydromethylthionine mesylate], in data set [4], the “pharmacological activity on clinical decline and brain atrophy” value was “exposure-dependent pharmacological activity on clinical decline and brain atrophy”.
In data set [1], `O=C(NCc1cc(-c2ccccc2)[nH]n1)c1csc(NS(=O)(=O)c2c[nH]c3ccccc23)n1` [Compound 26] displayed a 50% inhibitory concentration (IC50) of 616 µM. The activity at 20 µM in data set [2] (setting [6]) stood at 132 ± 8.4%. Besides, the CC50 at 24 h in data set [3] worked out at 188 ± 11 µM.
As for `CN(C)c1ccc2c(c1)Sc1cc(N(C)C)ccc1N2` [HMT, Hydromethylthionine, reference compound], the EC50 in data set [5] was 0.6 µM. For the same molecule, on dGAE, the “assembly-dependent occlusion of epitopes” value was “assembly-dependent occlusion of these epitopes did not occur” and the “1G2 epitope availability / immunoreactivity” value was “remained partially occluded”. Besides, the “CE2 epitope availability / immunoreactivity” value on dGAE (scAb CE2) was “became more available in the HMT-treated sample than in the soluble pre-assembly sample; also recorded: prevented the conformational changes in the CE2 epitope responsible for early loss of immunoreactivity”.
